Results as given in PubChem BioAssay AID1845209 (Molecular Pharmacology Branch, DTP, NCI, 2023).

System: NCI-H211 tumor spheroids, viability percent test/control
Assay: Anticancer human tumor NCI-H211 cell line growth inhibition;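 note: spheroids exposed to agents for seven days before readout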
Conditions: spheroids with HUVEC and MSC; for IC50: curve of first compound; for viability, T/C: stronger effect = lower value
Outline: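 Single agents and combinations were tested on spheroids built from tumor cells plus HUVEC and hMSC, at half-log dilutions starting at or near clinical Cmax, else 10 microM; final DMSO 0.25% (v/v).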

[1] = second compound 0.003 µM, first compound 0.0316 µM
[2] = second compound 0.003 µM, first compound 0.1 µM
[3] = second compound 0.003 µM, first compound 0.316 µM
[4] = second compound 0.003 µM, first compound 1 µM
[5] = second compound 0.003 µM, first compound 3.16 µM
[6] = second compound 0.003 µM, first compound 10 µM
[7] = second compound 0.00949 µM, first compound 0.0316 µM
[8] = second compound 0.00949 µM, first compound 0.1 µM
[9] = second compound 0.00949 µM, first compound 0.316 µM
[10] = second compound 0.00949 µM, first compound 1 µM
[11] = second compound 0.00949 µM, first compound 3.16 µM
[12] = second compound 0.00949 µM, first compound 10 µM
[13] = second compound 0.03 µM, first compound 0.0316 µM
[14] = second compound 0.03 µM, first compound 0.1 µM
[15] = second compound 0.03 µM, first compound 0.316 µM
[16] = second compound 0.03 µM, first compound 1 µM
[17] = second compound 0.03 µM, first compound 3.16 µM
[18] = second compound 0.03 µM, first compound 10 µM
[19] = second compound 0.0949 µM, first compound 0.0316 µM
[20] = second compound 0.0949 µM, first compound 0.1 µM
[21] = second compound 0.0949 µM, first compound 0.316 µM
[22] = second compound 0.0949 µM, first compound 1 µM
[23] = second compound 0.0949 µM, first compound 3.16 µM
[24] = second compound 0.0949 µM, first compound 10 µM
[25] = second compound 0.3 µM, first compound 0.0316 µM
[26] = second compound 0.3 µM, first compound 0.1 µM
[27] = second compound 0.3 µM, first compound 0.316 µM
[28] = second compound 0.3 µM, first compound 1 µM
[29] = second compound 0.3 µM, first compound 3.16 µM
[30] = second compound 0.3 µM, first compound 10 µM

Row | SMILES | IC50 (second compound 0.003 µM) [nM] | IC50 (second compound 0.00949 µM) [nM] | IC50 (second compound 0.03 µM) [nM] | IC50 (second compound 0.0949 µM) [nM] | IC50 (second compound 0.3 µM) [nM] | viability, T/C [1] [%] | viability, T/C [2] [%] | viability, T/C [3] [%] | viability, T/C [4] [%] | viability, T/C [5] [%] | viability, T/C [6] [%] | viability, T/C [7] [%] | viability, T/C [8] [%] | viability, T/C [9] [%] | viability, T/C [10] [%] | viability, T/C [11] [%] | viability, T/C [12] [%] | viability, T/C [13] [%] | viability, T/C [14] [%] | viability, T/C [15] [%] | further results
1 | CC(C)n1c(=O)n(C)c2cnc3cc(F)c(-c4ccc(OCCCN5CCCCC5)nc4)cc3c21 + CC[C@@]1(O)C(=O)OCc2c1cc1n(c2=O)Cc2cc3c(CN(C)C)c(O)ccc3nc2-1 | < 31.6 | < 31.6 | < 31.6 | < 31.6 | < 31.6 | 19.9 | 22 | 20 | 18.8 | 10.9 | 2.91 | 0.98 | 0.97 | 1.23 | 1.31 | 1.09 | 0.52 | 1.27 | 0.81 | 0.82 | viability, T/C [16]: 0.85%; viability, T/C [17]: 0.81%; viability, T/C [18]: 0.5%; viability, T/C [19]: 0.98%; viability, T/C [20]: 1.01%; viability, T/C [21]: 0.97%; viability, T/C [22]: 0.94%; viability, T/C [23]: 1%; viability, T/C [24]: 0.57%; viability, T/C [25]: 1.06%; viability, T/C [26]: 0.95%; viability, T/C [27]: 0.85%; viability, T/C [28]: 1.2%; viability, T/C [29]: 1.02%; viability, T/C [30]: 0.73%
2 | CC1COCCN1c1cc(-c2ccnn2C)c2ccnc(-c3ccn[nH]3)c2n1 (stereo not given) + CC[C@@]1(O)C(=O)OCc2c1cc1n(c2=O)Cc2cc3c(CN(C)C)c(O)ccc3nc2-1 | < 31.6 | < 31.6 | < 31.6 | < 31.6 | < 31.6 | 1.02 | 1.19 | 1.59 | 0.56 | 0.45 | 0.65 | 1.86 | 0.7 | 1.15 | 0.42 | 0.4 | 0.58 | 1.1 | 1.24 | 0.67 | viability, T/C [16]: 1.07%; viability, T/C [17]: 0.38%; viability, T/C [18]: 0.47%; viability, T/C [19]: 0.72%; viability, T/C [20]: 0.9%; viability, T/C [21]: 0.83%; viability, T/C [22]: 0.52%; viability, T/C [23]: 0.66%; viability, T/C [24]: 1.17%; viability, T/C [25]: 1%; viability, T/C [26]: 0.97%; viability, T/C [27]: 0.71%; viability, T/C [28]: 0.83%; viability, T/C [29]: 1.25%; viability, T/C [30]: 0.81%
3 | COc1cc(C)[nH]c(=O)c1CN1CCc2c(Cl)cc(C(OC)C3COC3)c(Cl)c2C1=O (stereo not given) + CC[C@@]1(O)C(=O)OCc2c1cc1n(c2=O)Cc2cc3c(CN(C)C)c(O)ccc3nc2-1 | > 10000 | 44.3 | < 31.6 | < 31.6 | < 31.6 | 97.8 | 94.2 | 94.5 | 80.2 | 84.6 | 79.1 | 61.2 | 23.1 | 19.7 | 23.1 | 20.5 | 17.4 | 2.26 | 1.33 | 1.49 | viability, T/C [16]: 1.03%; viability, T/C [17]: 0.89%; viability, T/C [18]: 1.35%; viability, T/C [19]: 1.49%; viability, T/C [20]: 1.42%; viability, T/C [21]: 1.65%; viability, T/C [22]: 1.41%; viability, T/C [23]: 1.22%; viability, T/C [24]: 0.83%; viability, T/C [25]: 1.31%; viability, T/C [26]: 1.63%; viability, T/C [27]: 1.29%; viability, T/C [28]: 1.18%; viability, T/C [29]: 1.75%; viability, T/C [30]: 0.92%
4 | COc1ccc([C@@H](O)c2cc(-c3ncnc4cc(N5CCOCC5)ccc34)c(F)cc2Cl)nn1 + CC[C@@]1(O)C(=O)OCc2c1cc1n(c2=O)Cc2cc3c(CN(C)C)c(O)ccc3nc2-1 | 3600 | < 31.6 | < 31.6 | < 31.6 | < 31.6 | 112 | 109 | 109 | 80.8 | 57.8 | 5.72 | 18.5 | 19 | 34.5 | 10.9 | 4.32 | 1.55 | 0.99 | 1.23 | 0.9 | viability, T/C [16]: 0.66%; viability, T/C [17]: 0.4%; viability, T/C [18]: 0.33%; viability, T/C [19]: 0.86%; viability, T/C [20]: 0.83%; viability, T/C [21]: 0.77%; viability, T/C [22]: 1.43%; viability, T/C [23]: 0.37%; viability, T/C [24]: 0.32%; viability, T/C [25]: 0.92%; viability, T/C [26]: 1.06%; viability, T/C [27]: 0.96%; viability, T/C [28]: 0.94%; viability, T/C [29]: 1.01%; viability, T/C [30]: 0.26%
5 | [2H]c1nc(C)nc([2H])c1-c1cc(NC[C@@H](C)c2cccc3c(C(=O)NC)ccnc23)ncn1 + CC[C@@]1(O)C(=O)OCc2c1cc1n(c2=O)Cc2cc3c(CN(C)C)c(O)ccc3nc2-1 | 8430 | < 31.6 | < 31.6 | < 31.6 | < 31.6 | 65.3 | 63.1 | 49.7 | 65.6 | 51 | 48.1 | 4.11 | 1.98 | 1.95 | 1.63 | 2.52 | 1.58 | 0.8 | 1.15 | 1.33 | viability, T/C [16]: 0.93%; viability, T/C [17]: 1.82%; viability, T/C [18]: 1.19%; viability, T/C [19]: 1.46%; viability, T/C [20]: 0.76%; viability, T/C [21]: 1.4%; viability, T/C [22]: 0.83%; viability, T/C [23]: 1.25%; viability, T/C [24]: 1.69%; viability, T/C [25]: 1.19%; viability, T/C [26]: 1.37%; viability, T/C [27]: 0.88%; viability, T/C [28]: 1.14%; viability, T/C [29]: 0.92%; viability, T/C [30]: 0.98%
